Laboratory results taken from US9920025B2, “Antibiotic” (Koninklijke Nederlandse Akademie Van Wetenschappen, priority 2014, dated 2018).

Columns and labels:
Streptococcus Group A = experiment: Growth kinetics (time-kill curves); format: cell-based; conditions: 50, 100 and 200 μg/ml, 37° C., 24 hrs
Method: (§1) Also preferred is a growth kinetic assay the effect of the compound of interest is assessed in time on growth of bacterial isolates on blood-agar plates, as known by the person skilled in the art. In brief, liquid cultures are inoculated in Mueller-Hinton Broth and incubated at 37° C. o/n. The o/n cultures were used to prepare a 0.05-0.1 McFarland suspension in Mueller Hinton Broth, which are incubated at 37° C. until 0.5 McFarland ([…]). These suspensions are used to inoculate 5 ml pre-warmed Mueller-Hinton Broth with approximately 1.5×10^5 CFU/ml with the appropriate antibiotic compound of interest. Directly after addition of the bacterial suspension a 0.25 ml sample is taken. Further 0.25 ml samples are taken after 1, 3, 6 and 24 hrs, which are added to 2.25 ml physiological salt solution. This suspension is used to prepare plates for CFU determination. The lower limit of detection is 40 CFU/ml. Bacterial suspension without antibiotics is preferably checked for normal growth after 24 hrs. A compound is understood herein as having antibacterial activity if at least 3 log10 reduction of CFU in the growth kinetics assay as passed after 1, 3, 6 or preferably 24 hours.
(§2) After elucidating the structure, we studied the growth kinetics of several Gram+bacteria in the presence of 50, 100 and 200 μg/ml of the compound of formula (I), in order to determine whether the compound was bacteriostatic or bactericidal. The bacteria were cultured at 37° C. for 24 hrs (with the exception of Streptococcus Pneumoniae which was cultured until 6 hrs) in the presence of the compound and samples were taken for colony counting at 0, 1, 3, 6 and 24 hrs.
(§3) More specifically, bacterial isolates as indicated below were grown on blood-agar plates. Liquid cultures were inoculated in Mueller-Hinton Broth and incubated at 37° C. o/n. The o/n cultures were used to prepare a 0.05-0.1 McFarland suspension in Mueller Hinton Broth, which was incubated at 37° C. until 0.5 McFarland ([…]). These suspensions were used to inoculate 5 ml pre-warmed Mueller-Hinton Broth with approximately 1.5×10^5 CFU/ml with the appropriate antibiotic and antibiotic concentration. Directly after addition of the bacterial suspension a 0.25 ml sample was taken. Further 0.25 ml samples were taken after 1, 3, 6 and 24 hrs. Samples were added to 2.25 ml physiological salt solution. This suspension was used to prepare plates for CFU determination. The lower limit of detection was 40 CFU/ml. Bacterial suspension without antibiotics was checked for normal growth after 24 hrs. Efficient bactericidal activity is defined as at least 3 log10 reduction of CFU.
(§4) The bacteria tested were two strains of Enterococcus faecium (FIGS. 2A and 2B), MRSA USA300 (FIG. 2C), MSSA (FIG. 2D), Staphylococcus epidermidis (FIG. 2E), Listeria monocytogenes (FIG. 2F), Streptococcus group A (FIG. 2G), Streptococcus group B (FIG. 2H) and Streptococcus pneumoniae (FIG. 2I).

[1] = tested on: Staphylococcus epidermidis; experiment: Growth kinetics (time-kill curves); format: cell-based; conditions: 50, 100 and 200 μg/ml, 37° C., 24 hrs
Method: as §1, §2, §3, §4

Streptococcus pneumoniae = experiment: Growth kinetics (time-kill curves); format: cell-based; conditions: 50, 100 and 200 μg/ml, 37° C., cultured until 6 hrs
Method: as §1, §2, §3, §4

Listeria monocytogenes = experiment: Growth kinetics (time-kill curves); format: cell-based; conditions: 50, 100 and 200 μg/ml, 37° C., 24 hrs
Method: as §1, §2, §3, §4

Streptococcus Group B = experiment: Growth kinetics (time-kill curves); format: cell-based; conditions: 50, 100 and 200 μg/ml, 37° C., 24 hrs, bactericidal = at least 3 log10 reduction of CFU
Method: as §1, §2, §3, §4

MSSA = experiment: Growth kinetics (time-kill curves); format: cell-based, Staphylococcus aureus; conditions: 50, 100 and 200 μg/ml, 37° C., 24 hrs
Method: as §1, with “hours. […]” for “hours.”

MRSA USA300 = experiment: Growth kinetics (time-kill curves); format: cell-based, Staphylococcus aureus; conditions: 50, 100 and 200 μg/ml, 37° C., 24 hrs
Method: as §1, with “hours. […]” for “hours.”

Escherichia coli (CP131) = experiment: Antibiotic activity of purified fraction (broth growth inhibition, serial dilution); format: cell-based; conditions: ESBL SHV-3, Gram−, no effect at highest concentration
Method: (§5) Preferably the compound of the invention has antimicrobial or antibiotic activity, more preferably antibacterial activity. Antimicrobial or antibacterial activity can be assessed by a suitable assay known by the person skilled in the art, preferably by a growth inhibition assay as exemplified herein. Preferably growth inhibition is assessed by culturing bacteria are cultured in the presence or absence of the antibacterial compound o/n at 37° C. in Luria Broth (LB). The read-out of the assay is by eye, if the bacteria have visibly grown, the sample is scored as non-inhibitory. If the broth is completely clear, the sample is scored as inhibitory.
(§6) Bacteria are cultured o/n at 37° C. in Luria Broth (LB). This culture is diluted 100× in fresh LB. This fresh culture is then used to test the filtrate and extract. The filtrate was tested in serial dilutions starting at 2× and further diluted with a factor 2 until 256×. The extract was tested starting at 10× dilution and further diluted with a factor 2 until 1280×. The bacteria with filtrate or extract were incubated o/n at 37° C. The read-out of the assay is by eye, if the bacteria have visibly grown, the sample is scored as non-inhibitory. If the broth is completely clear, the sample is scored as inhibitory.
(§7) The 95 fractions collected were pooled per 6 and the pooled fractions were dried in a speed-vac o/n. The fraction residues were dissolved in 1 ml 5% DMSO and tested on E. faecium (15A623) in serial dilutions starting at 2×. […] 1 ml of each fraction was dried in a speed-vac o/n and each fraction residue was dissolved in 1 ml 5% DMSO to be tested on E. faecium. […] The fraction was then tested on 19 additional strains of bacteria (Table 3).

[2] = tested on: Enterococcus faecium(15A623); experiment: as above; format: cell-based
Method: as §5, §6, §7

[3] = tested on: Streptococcus pneumoniae (14B186); experiment: as above; format: cell-based; conditions: Gram+
Method: as §5, §6, §7

[4] = tested on: Acinetobacter calcoaceticus (15A600), NCCB 100514; experiment: as above; format: cell-based; conditions: Gram−, no effect at highest concentration
Method: as §5, §6, §7

Escherichia coli (JS203) = experiment: as above; format: cell-based; conditions: ESBL CTX-M-1, Gram−, no effect at highest concentration
Method: as §5, §6, §7

[5] = tested on: Klebsiella pneumoniae (MR44); experiment: as above; format: cell-based; conditions: Gram−, no effect at highest concentration
Method: as §5, §6, §7

[6] = tested on: Pseudomonas aeruginosa (04A191), NCCB 100515; experiment: as above; format: cell-based; conditions: Gram−, no effect at highest concentration
Method: as §5, §6, §7

[7] = tested on: Methicillin-resistant Staphylococcus aureus (MRSA) ST8: USA300 (S1474) FPR3757, NARSA collection NRS482; experiment: as above; format: cell-based; conditions: Gram+
Method: as §5, §6, §7

[8] = tested on: Klebsiella pneumonia (JS264); experiment: as above; format: cell-based; conditions: ESBL CTX-M-15, Gram−, no effect at highest concentration
Method: as §5, §6, §7

[9] = tested on: Streptococcus group A (23M092); experiment: as above; format: cell-based; conditions: Gram+
Method: as §5, §6, §7

[10] = tested on: Streptococcus group B (05A396); experiment: as above; format: cell-based; conditions: Gram+
Method: as §5, §6, §7

[11] = tested on: Klebsiella pneumonia (CP14); experiment: as above; format: cell-based; conditions: ESBL TEM-18, Gram−, no effect at highest concentration
Method: as §5, §6, §7

[12] = tested on: Methicillin-sensitive Staphylococcus aureus 476 (S0101), ATCC BAA-1721; experiment: as above; format: cell-based; conditions: Gram+
Method: as §5, §6, §7

Escherichia coli (JS004) = experiment: as above; format: cell-based; conditions: ESBL TEM-3, Gram−, no effect at highest concentration
Method: as §5, §6, §7

[13] = tested on: Staphylococcus epidermidis (08A1071); experiment: as above; format: cell-based; conditions: Gram+
Method: as §5, §6, §7

[14] = tested on: Enterococcus faecium(16D030); experiment: as above; format: cell-based; conditions: Gram+
Method: as §5, §6, §7

[15] = tested on: Stenotrophomonas maltophilia (20A226), NCCB 100516; experiment: as above; format: cell-based; conditions: Gram−, no effect at highest concentration
Method: as §5, §6, §7

[16] = tested on: Klebsiella pneumonia (JS006); experiment: as above; format: cell-based; conditions: ESBL SHV-18, Gram−, no effect at highest concentration
Method: as §5, §6, §7

[17] = tested on: Listeria monocytogenes (41-4a); experiment: as above; format: cell-based; conditions: Gram+
Method: as §5, §6, §7

E. faecium (16D030) = experiment: Growth kinetics (time-kill curves); format: cell-based, Enterococcus faecium; conditions: 50, 100 and 200 μg/ml, 37° C., 24 hrs
Method: as §1, with “hours. […]” for “hours.”

E. faecium (15A623) = experiment: Growth kinetics (time-kill curves); format: cell-based, Enterococcus faecium; conditions: 50, 100 and 200 μg/ml, 37° C., 24 hrs
Method: as §1, with “hours. […]” for “hours.”

For CC1CCC(=O)/C=C/C(=O)O1 (stereo not drawn) [compound of formula (I), (E)-8-methyl-7,8-dihydro-2H-oxocine-2,5(6H)-dione], the “bacteriostatic or bactericidal (time-kill curves)” value (“bacteriostatic or bactericidal” below) (Streptococcus Group A) was “bactericidal”, the “bacteriostatic or bactericidal” value [1] was “bactericidal” and the “bacteriostatic or bactericidal” value (Streptococcus pneumoniae) was “bactericidal”. The “bacteriostatic or bactericidal” value (Listeria monocytogenes) was “bactericidal”, the “bacteriostatic or bactericidal” value (Streptococcus Group B) was “bacteriostatic” and the “bacteriostatic or bactericidal” value (MSSA) was “bactericidal”. The “bacteriostatic or bactericidal” value (MRSA USA300) was “bactericidal”, the “Minimal concentration for antibacterial activity” value (“Minimal concentration” below) (Escherichia coli (CP131)) was “No effect at 1.5 g/l” and the “inhibition of bacterial growth by HPLC fractions” value ([2]; E. faecium (15A623), residue in 1 ml 5% DMSO, serial dilutions starting at 2×) was “inhibited bacterial growth”. The “Minimal concentration” value ([2]; Enterococcus faecium(15A623), Gram+) was 37.5 mg/1, the “activity against E. faecium (15A623)” value ([2]; compound of formula (I) and hydrogenated derivative at similar concentrations) was “active” and the “Minimal concentration” value [3] was 75.0 mg/1. The “Minimal concentration” value [4] was “No effect at 1.5 g/l”, the “Minimal concentration” value (Escherichia coli (JS203)) was “No effect at 1.5 g/l” and the “Minimal concentration” value [5] was “No effect at 1.5 g/l”. The “Minimal concentration” value [6] was “No effect at 1.5 g/l”, the “Minimal concentration” value [7] was 18.8 mg/L and the “Minimal concentration” value [8] was “No effect at 1.5 g/l”. For the same compound, the “Minimal concentration” value [9] was 75.0 mg/1, the “Minimal concentration” value [10] was 75.0 mg/1 and the “Minimal concentration” value [11] was “No effect at 1.5 g/l”. The “Minimal concentration” value [12] was 4.69 mg/L, the “Minimal concentration” value (Escherichia coli (JS004)) was “No effect at 1.5 g/l” and the “Minimal concentration” value [13] was 18.8 mg/L. The “Minimal concentration” value [14] was 75.0 mg/1, the “Minimal concentration” value [15] was “No effect at 1.5 g/l” and the “Minimal concentration” value [16] was “No effect at 1.5 g/l”. The “Minimal concentration” value [17] was 75.0 mg/1, the “bacteriostatic or bactericidal” value (E. faecium (16D030)) was “bacteriostatic” and the “bacteriostatic or bactericidal” value (E. faecium (15A623)) was “bacteriostatic”.
